Consider 11 molecules from publication PMC11741115, “New Hydrogenated Phenanthrene Glycosides from the Edible Vegetable Elatostema tenuicaudatum W.T.Wang with DPP-IV Inhibitory and Hepatoprotective Activity” (Journal of Agricultural and Food Chemistry, 2025).

Assay [1] concerns HepG2 cells. Briefly: Hepatoprotective effect against acetaminophen-induced hepatotoxicity in HepG2 cells (MTT). It counts as cell-based, Human. The conditions noted are these: for viability at 50 µM: Homo sapiens, HepG2, 50 μM compound, pretreated 8 h, 6 mM APAP for 36 h, MTT, read-out: cell viability (cytoprotection against APAP). The protocol:
Human hepatocellular carcinoma HepG2 cells were obtained from the Bioresource Collection and Research Center (BCRC, Hsinchu, Taiwan). Cells culture was conducted with a complete medium consisting of DMEM (Dulbecco's Modified Eagle Medium, Gibco), 10% (v/v) fetal bovine serum (FBS) (Gibco), and 1% (v/v) antibiotic -antimycotic […] (Gibco, 15240062). Upon reaching at 80% confluence, cells were rinsed with PBS and detached using trypsin -EDTA (Gibco, 25200072) at 37 °C for 5 minutes. Subsequently, cells were seeded into specialized 96 -well plates (3 × 10^4/well, 100 µL/well) and incubated for 24 hours at 37 °C with 5% CO2. […]
control cells were used as a reference under the same conditions. The maximum absorbance value depended on the solvent used in the sample solution, and the percentage viability of cells was determined using the formula: […]. […]
3.9.2. Assess hepatoprotective effects of compounds […]
using an acetaminophen-induced hepatotoxicity HepG2 model. Cells were initially seeded in 96 -well plates at a density of 3 × 10^4 cells/well and then incubated under identical conditions with 5% CO 2 for 24 hours. Following this, cells were exposed to the test samples. After 8 hours, hepatotoxicity was induced using acetaminophen (Sigma Aldrich, A7085) at a concentration of 6 mM. The protective effects were assessed by determining cell viability using the MTT method 36 hours post - acetaminophen induc tion. Silymarin (at concentration of 50 μg/mL) was used as positive control. […]

The target in assay [2] is T1, DPP-IV (Homo sapiens, UniProt P27487).
T1 construct: purchased BioVision K779-100
T1 sequence (P27487 whole entry, species assumed): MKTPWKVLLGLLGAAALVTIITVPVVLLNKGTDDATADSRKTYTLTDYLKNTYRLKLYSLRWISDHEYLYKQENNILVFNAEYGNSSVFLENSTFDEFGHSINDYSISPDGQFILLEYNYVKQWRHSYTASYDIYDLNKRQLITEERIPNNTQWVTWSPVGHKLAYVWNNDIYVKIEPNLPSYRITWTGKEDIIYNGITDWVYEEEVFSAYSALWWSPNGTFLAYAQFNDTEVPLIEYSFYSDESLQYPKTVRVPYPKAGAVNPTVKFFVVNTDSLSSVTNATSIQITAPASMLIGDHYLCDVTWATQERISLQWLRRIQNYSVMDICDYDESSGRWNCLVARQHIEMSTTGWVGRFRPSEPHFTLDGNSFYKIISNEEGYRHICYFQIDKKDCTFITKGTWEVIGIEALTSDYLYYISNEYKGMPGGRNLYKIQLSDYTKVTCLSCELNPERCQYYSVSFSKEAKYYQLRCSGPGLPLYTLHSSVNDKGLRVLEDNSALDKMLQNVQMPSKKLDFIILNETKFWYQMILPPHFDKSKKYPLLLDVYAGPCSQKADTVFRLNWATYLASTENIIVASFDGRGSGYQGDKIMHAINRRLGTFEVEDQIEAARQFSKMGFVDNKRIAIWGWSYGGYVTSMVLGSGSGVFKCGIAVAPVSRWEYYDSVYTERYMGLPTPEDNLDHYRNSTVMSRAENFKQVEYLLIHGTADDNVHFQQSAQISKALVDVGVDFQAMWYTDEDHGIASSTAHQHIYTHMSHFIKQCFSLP
Briefly: DPP-IV inhibition activity (DPP-IV Activity Assay Kit, AMC fluorescence). The class given is biochemical. As to conditions: for IC50: pure compounds; for DPP-IV inhibition (in words): summary. The protocol: 2.7. DPP-IV inhibition activity
A commercially available DPP -IV Activity Assay Kit (K779 -100, BioVision) was employed to evaluate DPP-IV activity. The procedures were conducted according to the manufacturer’s instructions. DPP-IV enzymatically cleaves substrates, leading to the release o f the quenched fluorescent group AMC (7 -Amino-4-Methyl Coumarin). AMC detection was measured with a fluorescence reader at Ex/Em = 360/460 nm. […]

Consider `COc1cc2c(cc1O[C@@H]1O[C@H](CO)[C@@H](O)[C@H](O)[C@H]1O)[C@@]1(O)C(=O)C=CC[C@@H]1CC2` [Compound 9, elatostemanoside I], for which, in assay [1], the “hepatoprotective effect in acetaminophen-induced hepatotoxicity in HepG2 (in words)” value (“hepatoprotective effect” below) is recorded as “significant hepatoprotective effects” and the viability (in general, the share of living cells, or the viability signal relative to a control) at 50 µM came to 82.6%.
On to `COc1cc2c(cc1O[C@@H]1O[C@H](CO)[C@@H](O)[C@H](O)[C@H]1O)[C@@]1(O)C(=O)C[C@@H](O)C[C@H]1CC2` [Compound 6, elatostemanoside F], for which, in assay [2], the inhibition (usually the percentage by which the read-out fell short of the control) at 150 µM was at least 50%; the inhibition at 400 µM was above 50%; the IC50 – broadly, the concentration needed to halve the response being measured – is 151 ± 11.8 µM; the “DPP-IV inhibition (in words)” value is given as “weak effects”.
`COc1cc2c(cc1OC1OC(CO)C(O)C(O)C1O)C1(O)C(=O)CC(C3=CCC4CCc5cc(OC)c(OC6OC(CO)C(O)C(O)C6O)cc5C4(O)C3=O)CC1CC2` (centres unmarked) [Compound 16, elatostemanoside P]: the inhibition at 400 µM in assay [2] was above 50%.
In turn, `COc1cc2c(cc1O[C@@H]1O[C@H](CO)[C@@H](O)[C@H](O)[C@H]1O)[C@@]1(O)C(=O)C[C@@H](O)C[C@@H]1CC2` [Compound 2, elatostemanoside B] registered an inhibition at 400 µM in assay [2] above 50%.
For the molecule `COc1cc2c(cc1O[C@@H]1O[C@H](CO)[C@@H](O)[C@H](O)[C@H]1O)[C@@]1(O)C(=O)C=CC[C@H]1CC2` [Compound 11, elatostemanoside K], in assay [1], the “hepatoprotective effect” value was “significant hepatoprotective effects” and the viability at 50 µM was determined as 81.6%.
Regarding `COc1cc2c(cc1O[C@@H]1O[C@H](CO)[C@@H](O)[C@H](O)[C@H]1O)[C@@]1(O)C(=O)C[C@H](O)C[C@H]1CC2` [Compound 5, elatostemanoside E], in assay [2], the inhibition at 150 µM is at least 50%, the inhibition at 400 µM was above 50%, half-maximal inhibition (IC50) required 142 ± 15.6 µM and the “DPP-IV inhibition (in words)” value is “weak effects”.
`COc1cc2c(cc1O[C@@H]1O[C@H](CO)[C@@H](O)[C@H](O)[C@H]1O)[C@@]1(OC)C(=O)C=CC[C@@H]1CC2` [Compound 10, elatostemanoside J] yielded an inhibition at 400 µM in assay [2] above 50%.
On to `COc1cc2c(cc1O[C@@H]1O[C@H](CO)[C@@H](O)[C@H](O)[C@H]1O)[C@@]1(O)C(=O)C[C@H](O)C[C@@H]1CC2` [Compound 1, elatostemanoside A], for which the inhibition at 400 µM in assay [2] is above 50%. Besides, in assay [1], the “hepatoprotective effect” value was “significant hepatoprotective effects” and the viability at 50 µM worked out at 85.6%.
With `OC[C@H]1O[C@@H](Oc2cc3c(cc2O)CCc2cccc(O)c2-3)[C@H](O)[C@@H](O)[C@@H]1O` [Compound 14, 7,4-dihydroxy-9,10-dihydrophenanthrene 6-O-β-D-glucopyranoside], in assay [2], the inhibition at 150 µM is at least 50%, the inhibition at 400 µM was above 50%, the IC50 is 71.9 ± 8.9 µM and the “DPP-IV inhibition (in words)” value is recorded as “moderate inhibition”. In addition, in assay [1], the “hepatoprotective effect” value is reported as “significant hepatoprotective effects” and the viability at 50 µM was determined as 78.8%.
Molecule `COc1cc2c(cc1O[C@@H]1O[C@H](CO[C@@H]3O[C@@H](C)[C@H](O)[C@@H](O)[C@H]3O)[C@@H](O)[C@H](O)[C@H]1O)-c1c(O)cccc1CC2` [Compound 15, elatostemanoside O] returned an inhibition at 400 µM in assay [2] above 50%.
In the case of `COc1cc2c(cc1O[C@@H]1O[C@H](CO)[C@@H](O)[C@H](O)[C@H]1O)[C@@]1(O)C(=O)[C@@H](O)[C@H](O)C[C@H]1CC2` [Compound 8, elatostemanoside H], in assay [2], the inhibition at 150 µM was at least 50%, the inhibition at 400 µM was above 50%, the IC50 came out at 108 ± 19.6 µM and the “DPP-IV inhibition (in words)” value was “weak effects”.
